Reference: ChEMBL document CHEMBL1201862, “PubChem BioAssay data set” (2004)
Calls of active or inactive are those of the source.

Tests used:
[1] = biological target: T1, Short transient receptor potential channel 4 (Mus musculus, UniProt Q9QUQ5); assay: mouse TRPC4 channel inhibitors, dose response, cell-based, HEK293 TRPC4/mu-opioid, Fluo-4 calcium (AID 434942); assay type: functional;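 also: potency of inhibitors blocking the TRPC4 calcium response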
T1 sequence (Q9QUQ5 whole entry): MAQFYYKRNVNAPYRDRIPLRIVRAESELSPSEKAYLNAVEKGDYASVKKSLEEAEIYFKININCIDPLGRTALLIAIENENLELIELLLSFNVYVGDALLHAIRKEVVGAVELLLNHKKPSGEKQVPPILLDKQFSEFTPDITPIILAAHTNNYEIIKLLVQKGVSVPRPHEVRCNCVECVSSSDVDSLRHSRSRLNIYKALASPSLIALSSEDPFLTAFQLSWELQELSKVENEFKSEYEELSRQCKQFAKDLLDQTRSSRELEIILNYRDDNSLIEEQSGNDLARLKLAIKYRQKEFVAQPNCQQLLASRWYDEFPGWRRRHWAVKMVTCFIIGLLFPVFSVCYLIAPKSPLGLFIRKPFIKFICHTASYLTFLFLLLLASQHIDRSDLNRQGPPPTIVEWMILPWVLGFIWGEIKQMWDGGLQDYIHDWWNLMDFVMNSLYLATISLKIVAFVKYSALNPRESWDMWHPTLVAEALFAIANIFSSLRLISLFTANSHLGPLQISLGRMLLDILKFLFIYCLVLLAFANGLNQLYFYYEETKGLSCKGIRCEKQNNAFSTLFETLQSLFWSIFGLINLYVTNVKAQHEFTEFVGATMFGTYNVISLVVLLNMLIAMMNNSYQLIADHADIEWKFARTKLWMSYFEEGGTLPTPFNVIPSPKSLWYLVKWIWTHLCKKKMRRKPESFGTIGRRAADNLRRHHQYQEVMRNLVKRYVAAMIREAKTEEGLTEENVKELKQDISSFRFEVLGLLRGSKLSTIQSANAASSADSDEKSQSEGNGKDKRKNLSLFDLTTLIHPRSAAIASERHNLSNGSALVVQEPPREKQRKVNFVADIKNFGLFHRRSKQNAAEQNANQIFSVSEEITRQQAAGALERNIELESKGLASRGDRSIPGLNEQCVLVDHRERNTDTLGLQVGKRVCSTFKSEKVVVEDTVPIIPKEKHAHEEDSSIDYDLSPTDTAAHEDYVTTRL

[2] = cytotoxicity toward NIH3T3 fibroblasts, dose response, counter-screen, cell-based, ATP luminescence, mouse fibroblasts (AID 2010); assay type: functional;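 also: cells exposed to compound for about 90 hours before reading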
[3] = microbe, parasite or virus in culture; assay type: functional; settings: Mycobacterium tuberculosis
[4] = inhibitors of intracellular T. cruzi replication, confirmation, NIH3T3 host cells, beta-gal luminescence (AID 2044); assay type: functional, cell-based;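 also: intracellular parasites grown in NIH/3T3 mouse fibroblasts as host cells; luminescent beta-galactosidase reporter signal from transgenic T. cruzi replicating inside host cells; inhibitors lower the luminescence signal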
[5] = biological target: T2, Acyl-homoserine lactone acylase PvdQ (Pseudomonas aeruginosa (strain LESB58), UniProt Q9I194); assay: P. aeruginosa PvdQ acylase inhibitors, dose response, biochemical, fluorescence, plate reader and imaging, cherry-picks (AID 493231)
T2 sequence (Q9I194 whole entry): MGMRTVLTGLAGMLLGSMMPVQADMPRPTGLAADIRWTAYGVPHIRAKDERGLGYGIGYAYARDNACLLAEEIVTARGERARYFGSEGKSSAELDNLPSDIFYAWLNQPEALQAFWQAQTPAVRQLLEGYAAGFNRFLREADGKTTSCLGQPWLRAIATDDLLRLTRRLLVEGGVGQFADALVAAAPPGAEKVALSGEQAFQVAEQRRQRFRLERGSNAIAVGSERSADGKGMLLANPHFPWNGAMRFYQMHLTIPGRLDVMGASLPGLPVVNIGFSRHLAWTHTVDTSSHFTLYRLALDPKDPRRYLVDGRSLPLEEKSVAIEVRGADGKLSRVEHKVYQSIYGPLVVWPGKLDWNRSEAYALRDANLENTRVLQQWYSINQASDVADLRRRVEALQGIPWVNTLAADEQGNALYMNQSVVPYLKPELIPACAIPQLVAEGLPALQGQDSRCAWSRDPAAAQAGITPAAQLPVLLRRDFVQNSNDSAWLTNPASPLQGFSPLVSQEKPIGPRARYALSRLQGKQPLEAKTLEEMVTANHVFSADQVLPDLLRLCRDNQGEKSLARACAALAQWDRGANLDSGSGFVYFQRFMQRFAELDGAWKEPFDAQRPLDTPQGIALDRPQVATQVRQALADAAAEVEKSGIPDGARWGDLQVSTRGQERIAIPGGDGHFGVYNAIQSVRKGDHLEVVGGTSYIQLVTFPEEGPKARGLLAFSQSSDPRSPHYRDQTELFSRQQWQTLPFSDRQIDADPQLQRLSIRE

[6] = cytotoxicity in HEK-293T cells, dose response, cytotoxicity control for BCR NF-kB inhibitor project, luminescence, B-cell screen hits (AID 489021); assay type: functional, cell-based;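 also: HEK-293T cells carrying an NF-kB luciferase reporter; cells exposed to compound for about 14 hours before viability readout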
BJ [7] = assay: cells; assay type: functional, cell-based; settings: Homo sapiens
[8] = inhibitors of SNCA 5'UTR-driven reporter translation, confirmation, H4 neuroglioma cells, luminescence (AID 1988); assay type: functional, cell-based
BJ [9] = assay: cytotoxicity toward BJ-TERT fibroblasts, dose response, cell-based, RAS-independent, luminescence (AID 1933); assay type: functional; settings: Homo sapiens
BJ [10] = assay: cytotoxicity toward BJ-TERT-LT-ST fibroblasts, dose response, cell-based, RAS-independent, luminescence (AID 1935); assay type: functional; settings: Homo sapiens;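 also: BJ fibroblasts immortalized with TERT plus LT and ST oncogenes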
[11] = cytotoxicity toward DRD oncogenic fibroblasts, dose response, cell-based, non-viral oncogenic, luminescence (AID 1934); assay type: functional; settings: Homo sapiens
[12] = Luminescence Cell-Based Dose Response HTS to Identify Inhibitors of 5'UTR Stem-Loop Driven Prion Protein mRNA Translation in H4 Neuroglioblastoma Cells. [Related pubchem assays: 1827 (Project Summary), 1813 (Primary HTS)]; assay type: functional
[13] = inhibitors of firefly luciferase expression or activity, dose response, H4 neuroglioma cells, luminescence (AID 1990); assay type: functional, cell-based
[14] = biological target: Glucose-6-phosphate 1-dehydrogenase (Homo sapiens, UniProt P11413); assay: human G6PD enzyme inhibitors, dose response, selectivity assay for P. falciparum G6PD inhibitor project, biochemical, fluorescence (AID 504792); assay type: functional
Chain of Glucose-6-phosphate 1-dehydrogenase (P11413 whole entry): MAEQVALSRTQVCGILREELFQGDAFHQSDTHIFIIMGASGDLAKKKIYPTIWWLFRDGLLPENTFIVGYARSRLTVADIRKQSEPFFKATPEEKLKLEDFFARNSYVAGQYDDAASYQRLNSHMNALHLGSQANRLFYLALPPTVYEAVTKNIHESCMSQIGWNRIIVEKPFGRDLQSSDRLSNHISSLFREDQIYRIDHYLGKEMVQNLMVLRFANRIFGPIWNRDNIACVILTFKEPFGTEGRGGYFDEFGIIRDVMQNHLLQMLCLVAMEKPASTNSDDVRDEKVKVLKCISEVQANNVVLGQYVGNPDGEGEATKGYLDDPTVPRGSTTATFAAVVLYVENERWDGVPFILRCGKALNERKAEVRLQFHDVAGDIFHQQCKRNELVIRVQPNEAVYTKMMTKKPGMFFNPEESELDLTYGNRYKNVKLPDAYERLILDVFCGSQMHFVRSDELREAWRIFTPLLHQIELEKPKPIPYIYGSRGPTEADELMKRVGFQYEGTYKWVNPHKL

[15] = Luminescence Cell-Based Dose Retest to Confirm Inhibitors of Cancer Stem Cells. [Related pubchem assays (depositor defined):AID2717, AID2721]; assay type: functional; settings: Homo sapiens
HEK293 = assay: inhibitors of LMP1-driven NF-kB reporter, dose response, cell-based, HEK293, luciferase, cherry-pick (AID 588343); assay type: functional; settings: Homo sapiens
[16] = biological target: T3, Heat shock factor protein 1 (Mus musculus, UniProt P38532); assay: inhibition of MG132-induced HSE-luciferase signal, confirmation, cell-based, NIH3T3, luminescence, dose retest (AID 2382); assay type: functional;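 also: NIH3T3 fibroblasts with HSF1-driven luciferase reporter stressed by proteasome inhibitor MG132; luminescence from HSF1-driven luciferase expression after 8 hours of MG132 stress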
T3 sequence (P38532 whole entry): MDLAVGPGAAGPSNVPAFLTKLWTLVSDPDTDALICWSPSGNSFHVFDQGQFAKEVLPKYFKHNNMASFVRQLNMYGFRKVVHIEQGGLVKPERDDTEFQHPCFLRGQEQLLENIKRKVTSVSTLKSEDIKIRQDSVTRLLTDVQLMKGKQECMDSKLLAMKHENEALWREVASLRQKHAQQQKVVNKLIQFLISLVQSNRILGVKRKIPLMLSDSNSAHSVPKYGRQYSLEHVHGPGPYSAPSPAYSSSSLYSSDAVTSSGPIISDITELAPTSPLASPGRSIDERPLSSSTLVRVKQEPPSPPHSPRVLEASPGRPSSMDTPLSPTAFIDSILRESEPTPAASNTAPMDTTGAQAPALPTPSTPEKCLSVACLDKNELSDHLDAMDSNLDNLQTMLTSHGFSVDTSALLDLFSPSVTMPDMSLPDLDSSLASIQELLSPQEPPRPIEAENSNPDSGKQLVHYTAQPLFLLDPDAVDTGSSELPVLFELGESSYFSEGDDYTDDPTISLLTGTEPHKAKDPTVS

[17] = biological target: 5-hydroxytryptamine receptor 5A (Homo sapiens, UniProt P47898); assay: Counterscreen for agonists of OPRM1-OPRD1 heterodimerization: luminescence-based cell-based high throughput dose response assay to identify agonists of 5-hydroxytryptamine (serotonin) 5A receptor (HTR5A). [Related pubchem assays (depositor defined):AID504326, AID504355, AID504692, AID504904, AID504905]; assay type: functional
Chain of 5-hydroxytryptamine receptor 5A (P47898 whole entry): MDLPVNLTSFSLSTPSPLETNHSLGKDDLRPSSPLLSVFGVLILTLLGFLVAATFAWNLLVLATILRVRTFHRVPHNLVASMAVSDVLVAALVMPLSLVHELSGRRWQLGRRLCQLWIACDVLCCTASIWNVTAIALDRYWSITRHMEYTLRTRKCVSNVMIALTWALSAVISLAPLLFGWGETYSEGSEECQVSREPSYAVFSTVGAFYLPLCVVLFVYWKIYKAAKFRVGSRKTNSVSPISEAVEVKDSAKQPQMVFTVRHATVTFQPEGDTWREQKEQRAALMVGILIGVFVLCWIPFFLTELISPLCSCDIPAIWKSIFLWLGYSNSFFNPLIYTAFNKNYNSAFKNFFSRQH

[18] = biological target: Delta-type opioid receptor (Homo sapiens, UniProt P41143); assay: Counterscreen for agonists of heterodimerization of the mu 1 (OPRM1) and delta 1 (OPRD1) opioid receptors: Luminescence-based cell-based high throughput dose response assay to identify agonists of OPRD1 homodimerization. [Related pubchem assays (depositor defined):AID504326, AID504355, AID504692, AID504904, AID504905]; assay type: functional
Chain of Delta-type opioid receptor (P41143 whole entry): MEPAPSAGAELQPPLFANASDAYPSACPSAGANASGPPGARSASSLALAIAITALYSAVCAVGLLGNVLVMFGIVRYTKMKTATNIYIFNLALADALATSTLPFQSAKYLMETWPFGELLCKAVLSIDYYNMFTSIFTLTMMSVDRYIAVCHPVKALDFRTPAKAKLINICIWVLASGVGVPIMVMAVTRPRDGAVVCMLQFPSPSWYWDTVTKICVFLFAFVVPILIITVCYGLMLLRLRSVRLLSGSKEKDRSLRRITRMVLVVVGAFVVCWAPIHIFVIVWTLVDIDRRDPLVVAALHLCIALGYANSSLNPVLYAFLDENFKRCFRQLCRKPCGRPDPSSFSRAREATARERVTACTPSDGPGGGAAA

Mu-type opioid receptor = Mu-type opioid receptor (Homo sapiens, UniProt P35372); assay: Counterscreen for agonists of heterodimerization of the mu 1 (OPRM1) and delta 1 (OPRD1) opioid receptors: Luminescence-based cell-based high throughput dose response assay to identify agonists of OPRM1 homodimerization.; assay type: functional;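 also: U2OS cells expressing OPRM1 and beta-arrestin as split beta-galactosidase partners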
Chain of Mu-type opioid receptor (P35372 whole entry): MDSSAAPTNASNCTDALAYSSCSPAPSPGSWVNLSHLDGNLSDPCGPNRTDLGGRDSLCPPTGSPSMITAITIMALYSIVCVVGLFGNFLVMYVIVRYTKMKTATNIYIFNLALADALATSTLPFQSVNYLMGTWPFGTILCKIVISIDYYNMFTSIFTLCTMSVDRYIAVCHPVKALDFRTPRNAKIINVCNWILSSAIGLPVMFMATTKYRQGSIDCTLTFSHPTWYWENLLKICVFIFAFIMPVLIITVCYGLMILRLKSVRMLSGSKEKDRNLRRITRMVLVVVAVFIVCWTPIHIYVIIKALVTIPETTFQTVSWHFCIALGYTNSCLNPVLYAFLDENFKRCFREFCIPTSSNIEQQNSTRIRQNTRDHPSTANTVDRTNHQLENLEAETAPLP

[19] = biological target: T1, Short transient receptor potential channel 4; assay: mouse TRPC4 channel activators, dose response, cell-based, HEK293 TRPC4/mu-opioid, Fluo-4 calcium (AID 434937); assay type: functional
[20] = inhibitors of Vif binding to APOBEC3G peptide, primary screen, biochemical, TR-FRET, GST-Vif 1-94, biotin-A3G peptide, dose response retest (AID 1117319); assay type: functional;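 also: TR-FRET signal of purified GST-Vif binding a biotinylated A3G peptide; inhibitors lower the FRET signal by blocking Vif and A3G binding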
[21] = THP-1 cell cytotoxicity, dose response, cytotoxicity control for non-replicating M. tuberculosis project (AID 489025); assay type: functional
[22] = Vero E6 cell cytotoxicity, dose response, cytotoxicity control for non-replicating M. tuberculosis project, secondary assay (AID 492998); assay type: functional, VeroE6; settings: Vero C1008
cells = assay type: functional

CN1CCN(c2nc(-c3cccnc3)nc3scc(-c4ccccc4)c23)CC1
EC50 [1]: 11.9 µM (active)

CC(C)(C)c1ccc(C(=O)N2CCN(CCNC(=O)C(=O)NCc3ccc(Cl)cc3)CC2)cc1
EC50 [2]: > 30 µM (not active) | CC50 [3]: > 40 µM (active) | EC50 [4]: 3.43 µM (active)

CC(=O)C1=C(C)NC(SCC(=O)c2ccc(F)cc2)=C(C#N)C1c1ccco1 (centres undefined)
CC50 [3]: 39.2 µM (active)

Clc1ccc2scc(CN3CCCCC3)c2c1
AC50 [5]: 9.4 µM (active)

COc1ccc(S(=O)(=O)Nc2cc3c(C(C)=O)c(C)oc3c3ccccc23)cc1
IC50 [6]: > 80 µM (inactive) | EC50 (BJ [7]): 4.49 µM (active) | EC50 [8]: 0.294 µM (active) | EC50 (BJ [9]): 1.59 µM (active) | EC50 (BJ [10]): 1.26 µM (active) | EC50 [11]: 1.91 µM (active) | EC50 [12]: 2.67 µM (active) | EC50 [13]: 2.35 µM (active)

CC(C)(C)c1ccc(O)c(O)c1
IC50 [14]: > 80 µM (inactive) | AC50 [15]: 4.47 µM (active)

Cc1nn(C(C)(C)C)c(C)c1/C=N/OC(=O)Nc1ccc(Cl)c(Cl)c1
AC50 (HEK293): 0.839 µM (active) | IC50 [6]: > 80 µM (inactive) | EC50 [16]: < 0.16 µM (active)

CCOC(=O)C1(CC2CC2)CCN(Cc2cnc(-c3ccccc3C)nc2)CC1
EC50 [17]: > 92.5 µM (inactive) | EC50 [18]: > 92.5 µM (inactive) | EC50 (Mu-type opioid receptor): > 92.5 µM (inactive) | EC50 [19]: 5.31 µM (active)

O=C1NC(=O)N(Cc2ccco2)C(=O)/C1=C/NCc1ccc2c(c1)OCO2
IC50 [20]: > 100 µM (active)

FC(F)(F)c1nnc2ccc(Cl)nn12
CC50 [21]: 8.62 µM (active) | CC50 [22]: > 20 µM (active) | IC50 (cells): 1.82 µM (active)

OCCNCc1cc(Br)ccc1OCc1ccc(Cl)cc1Cl
EC50 [1]: 3.35 µM (active)

Cc1nc([N+](=O)[O-])c(Br)n1Cc1ccccc1
CC50 [21]: 30.1 µM (active) | CC50 [22]: > 20 µM (active) | IC50 (cells): 9.77 µM (active)

CCCOc1ccc(NC(=O)C(=O)NCCCn2ccnc2)cc1
IC50 [6]: > 80 µM (inactive)

O=C1OC(c2ccccc2)c2ccccc21 (centres undefined)
AC50 [5]: 97.9 µM (active)

Cc1ccc2nc(-c3ccncc3)cc(-c3ccccc3)c2c1
CC50 [3]: > 40 µM (active)
